From PubChem BioAssay AID743394 (Broad Institute, 2014)
The source made the active and inactive calls.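 How the source made its calls: active means 40% activation versus positive control reached by fitted dose-response curve at or below highest valid tested dose; inconclusive means poor fit quality, or flat fit with activation between 30% and 70%; inactive means the rest.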

Experiments:
[1] = test system: 68-5-11 mouse fibroblast XiGFP reporter, % GFP-positive imaging, 3 d; test: inactive X chromosome reactivation in XiGFP fibroblasts, dose response, imaging, 68-5-11 mouse fibroblasts, GFP, cherry-pick (AID 743394); conditions: cells co-treated with 5-aza-dC sensitizer;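 further: sensitizer 5-aza-dC present in the wells at 0.5 mM final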
[2] = as above; conditions: 68-5-11 mouse fibroblast XiGFP reporter, % GFP-positive imaging, 3 d
[3] = at 19.5 µM (top of the series), cells co-treated with 5-aza-dC sensitizer, scaled: neutral wells 0, ellipticine wells 100

SMILES | AC40 [1] | activation [2, 3] | further results
Cc1nnc(N2C(=O)c3cccc4c([N+](=O)[O-])ccc(c34)C2=O)s1 | > 19.5 µM (inactive) | – | –
Cc1ccc(-c2cn3nc(-c4ccccc4)c(-c4ccccc4)nc3n2)cc1 | 7.27 µM | – | –
CCN(CC)C1=CC2=CC(=C(C#N)C#N)CCC2CC1 (stereo not given) | 8.77 µM | – | –
N#CC(C#N)=C1C=C2C=C(N3CCCCCC3)CCC2CC1 (stereo not given) | 4 µM | – | –
COC(=O)C1=C(C)NC(C)=C(C(=O)OC)C1C(=O)OCC(=O)c1ccc(F)cc1 | 15.3 µM | – | –
O=c1oc2cc(O)ccc2cc1-c1nc2c(s1)CCc1ccccc1-2 | 2.79 µM | – | –
CCOCCCNC(=O)/C(C#N)=C/c1ccc([N+](=O)[O-])o1 | > 19.5 µM (inactive) | – | –
Nc1ccc2c3c(cccc13)-c1ccccc1-2 | 1.04 µM | – | –
Cc1c2c(cc3c1[nH]c1ccccc13)C=NCC2 | 9.27 µM | – | –
Cc1cc(N/N=C/c2ccc([N+](=O)[O-])o2)nc2ccccc12 | 8.4 µM | – | –
CCN1/C(=C\c2ccc3ccccc3[n+]2CC)Sc2cc(C)ccc21 | 0.668 µM | – | –
Nc1c(C(=O)c2ccccc2)sc2nsc(SCCN3CCCC3)c12 | 8.3 µM | – | –
CCN(CC)c1ccc2cc(C(=O)c3cccs3)c(=O)oc2c1 | 5.34 µM | – | –
NC(=O)c1c(NC(=O)c2ccccc2)sc2c1CCN(Cc1ccccc1)C2 | 15.8 µM | – | –
COc1ccc(-[n+]2c(C)cc(/C=C3\Sc4ccccc4N3C)cc2C)cc1 | 0.22 µM | – | –
COc1cc(N2CCCC2)c(OC)cc1/C=C1/NC(=S)NC1=O | > 19.5 µM (inactive) | – | –
CCN1CCc2c(sc(NC(=O)Nc3ccc(Cl)c(Cl)c3)c2C(N)=O)C1 | 0.196 µM | – | –
O=S(=O)(Nc1cc2nc3ccccc3nc2n1Cc1ccccc1)c1ccc(Cl)cc1 | > 19.5 µM (inactive) | – | –
O=[N+]([O-])c1ccc(/C=C/C2=NN(c3ccccc3)C(c3ccco3)C2)cc1 (stereo not given) | 1.81 µM | – | –
Nc1c(C(=O)Nc2ccc(S(=O)(=O)N3CCCC3)cc2)sc2nc3cc4c(cc3cc12)CCC4 | 4.29 µM | – | –
COc1cc2c3nnc(-c4ccc(F)cc4)c-3cn(Cc3ccccc3)c2cc1OC | 1.23 µM | – | –
CCN(CC)c1ccc(/C=C/c2cc(-c3ccccc3)c3ccccc3n2)cc1 | 1.68 µM | – | –
CC(C)CCN1CCN(Cc2cc3ccccc3[nH]2)CC1CCO (stereo not given) | 16.4 µM | – | –

SMILES | AC40 [1] | activation [2, 3] | further results
CC[n+]1c(/C=C/C=C/N(C(C)=O)c2ccccc2)sc2cc(OC)ccc21 | 1.16 µM | – | –
CCOC(=O)Cn1c(=O)c(-c2cc(Br)ccc2N)nc2ccccc21 | 12.5 µM | – | –
CCN(CC)c1ccc2cc(-c3nc(-c4ccc(OC)cc4)cs3)c(=O)oc2c1 | 0.057 µM | – | –
O=[N+]([O-])c1ccc(N/N=C/c2sc(N3CCOCC3)nc2-c2ccccc2)c(S(=O)(=O)Nc2ccc(Cl)cc2)c1 | 1.72 µM | – | –
CCN1/C(=C/c2ccc3cc(C)ccc3[n+]2CC)Sc2cc(C)ccc21 | 2.16 µM | – | –
C[C@H]1CCCCO[C@H](CN(C)S(=O)(=O)c2ccc(Cl)cc2)[C@@H](C)CN([C@@H](C)CO)C(=O)c2cc(NC(=O)Nc3ccccc3)ccc2O1 | > 19.5 µM (inactive) | – | –
OC[C@@H]1Nc2ccc(C#Cc3ccccc3)cc2[C@H]2[C@@H]1CCN2Cc1nccs1 | – | 0.161% (inactive) | –
Oc1ccc(Br)cc1C=Nc1ccc2c3c(cccc13)CC2 | – | 0.056% (inactive) | –
COc1ccc(-c2nnc(NC(=O)c3ccc(F)cc3)o2)cc1 | – | -0.035% (inactive) | –
CN(C)c1ccc(NC2=C(Cl)C(=O)c3ccccc3C2=O)cc1 | – | -0.053% (inactive) | –
CCN1CCN(c2cc(C)c3cc(NC(=O)c4cccs4)ccc3n2)CC1 | – | -0.032% (inactive) | –
N#CC(C#N)=C1C=CC=CN1/C(=C\c1ccco1)C(=O)c1ccc(Br)cc1 | – | 8.49% (inactive) | –
COc1ccc(OC)c(/C=C/c2ccc3cccc(O)c3n2)c1 | – | -0.024% (inactive) | –
Cc1ccc(S(=O)(=O)Nc2cccc3c2O[C@H](CN(C)C(=O)Nc2cccc4ccccc24)[C@H](C)CN([C@H](C)CO)C3=O)cc1 | – | 0.028% (inactive) | –
COc1ccccc1CNC(=O)COC(=O)COc1ccccc1F | – | 0.549% (inactive) | –
COc1ccc2c3c(n(C)c2c1)[C@@H](CO)N(Cc1ccccc1OC)CC31CCN(C)CC1 | – | 0.213% (inactive) | –
COc1ccc(N=Nc2ccc(O)c(P(=O)(c3ccccc3)c3ccccc3)c2)cc1 | – | 0.015% (inactive) | –
CCCN(C)C[C@@H]1OCc2cnnn2CCCC(=O)N([C@H](C)CO)C[C@H]1C | – | 1.19% (inactive) | –
COc1cccc(CNC(=O)c2cc(S(=O)(=O)N3CCOCC3)cn2C)c1 | – | 0.576% (inactive) | –
COC(=O)c1c(NC(=O)c2ccc(C)cc2)csc1C | – | 0.018% (inactive) | –
Cc1cccc(OCC(=O)N(C)c2c(N)n(Cc3ccccc3)c(=O)[nH]c2=O)c1C | – | 0.012% (inactive) | –
CC(C)(C)NC(=O)C(c1c[nH]c2ccccc12)N(C(=O)Cn1nnc(-c2ccc(Cl)cc2)n1)c1ccccc1F (stereo not given) | – | 0.104% (inactive) | –
Cc1c(CN2CCCC(C(=O)c3cccc(OC(C)C)c3)C2)c(=O)n(-c2ccccc2)n1C (stereo not given) | – | -0.016% (inactive) | –

SMILES | AC40 [1] | activation [2, 3] | further results
COc1ccc(N2CCN(C(CNC(=O)c3ccc4c(c3)OCO4)c3ccco3)CC2)cc1 (stereo not given) | – | -0.08% (inactive) | –
C[C@H]1CN([C@@H](C)CO)C(=O)c2cc(NC(=O)CCCCCC(=O)Nc3ccccc3N)ccc2O[C@H]1CN(C)C(=O)Nc1ccccc1 | – | 0.04% (inactive) | –
CCOCCCNC(=O)C(c1ccc(C)cc1)N(Cc1cccs1)C(=O)c1ccccn1 (stereo not given) | – | 0.035% (inactive) | –
CN(C)C(=O)CN1CCN(Cc2nc(CC3CC3)no2)CC1 | – | -0.032% (inactive) | –
CC(C)N1CCc2c(sc(NC(=O)c3cc4cc([N+](=O)[O-])ccc4s3)c2C(N)=O)C1 | – | 7.43% (inactive) | –
CCn1nc(C)cc1-c1nnc(Sc2ncc([N+](=O)[O-])s2)n1C | – | -0.032% (inactive) | –
C[C@H]1CCCCO[C@@H](CN(C)C(=O)Nc2ccc(C(F)(F)F)cc2)[C@@H](C)CN([C@@H](C)CO)C(=O)c2cc(NC(=O)CCC(F)(F)F)ccc2O1 | – | 0.048% (inactive) | –
COCCN(C(=S)Nc1cccc(C)c1)C(C)c1cccnc1 (stereo not given) | – | 0.005% (inactive) | –
Oc1cccc(/C=N/NC(=S)NCCN2CCOCC2)c1O | – | -0.016% (inactive) | –
Nc1ccccc1Nc1cc(-c2ccccc2)[nH]n1 | – | -0.047% (inactive) | –
CCc1ccc(CN(C)C(=O)c2cc(S(=O)(=O)N3CCOCC3)ccc2N2CCCC2)cc1 | – | -0.007% (inactive) | –
O=C(/C=C/Sc1ccc(C(F)(F)F)cn1)c1ccccc1 | – | 0.096% (inactive) | –
O=C(CCl)N=c1sccn1Cc1cccc2ccccc12 | – | -0.053% (inactive) | –
O=C(O)c1ccc(COc2ccccc2C=C2C(=O)c3ccccc3C2=O)cc1 | – | 0.163% (inactive) | –
Cc1ccc(NCc2nnc(SCC(=O)NNC(=O)Cc3ccccc3)n2C)cc1 | – | 0.012% (inactive) | –
COc1ccc(NC(=O)C(=O)NCCC2CCCCN2S(=O)(=O)c2cccs2)cc1 (stereo not given) | – | 6.11% (inactive) | –
COc1ccc(/C=C\c2onc(C)c2S(=O)(=O)N2CCC(C(=O)NCc3ccco3)CC2)cc1 | – | 0.355% (inactive) | –
OCC[n+]1c2ccccc2nc2ccc(N3CCOCC3)cc21 | – | – | activation ([2]; at 19.5 µM (top of the series)): 0.02% (inactive)
O=C(N/N=C/c1ccc(O)c2ncccc12)c1cccc(Br)c1 | – | -0.037% (inactive) | –
Cc1ccc(NC(=O)c2cc(N3C(=O)C=CC3=O)ccc2N2CCOCC2)cc1Cl | – | -0.024% (inactive) | –
Cc1nn2c(NCCCN(C)C)c3c(nc2c1-c1ccccc1)CCCC3 | – | 0.079% (inactive) | –
Cc1cccc(CN(C)C[C@@H]2Oc3ncc(C#Cc4ccccc4)cc3C(=O)N([C@H](C)CO)C[C@@H]2C)c1 | – | – | activation ([2]; at 21 µM (top of the series), cells co-treated with 5-aza-dC sensitizer, scaled: neutral wells 0, ellipticine wells 100): -0.035% (inactive)
COc1ccc(N(C)S(=O)(=O)c2cccc(C(=O)NCC(c3cccs3)N(C)C)c2)cc1 (stereo not given) | – | 0.036% (inactive) | –

SMILES | AC40 [1] | activation [2, 3] | further results
Cc1nnc(SCc2cc(=O)oc3ccc4ccccc4c23)n1Cc1ccccc1 | – | -0.027% (inactive) | –
[N-]=[N+]=CC(=O)C(O)(c1ccccc1)C(Cl)c1ccccc1 (stereo not given) | – | 0.034% (inactive) | –
CCOC(=O)c1ccc(NC(=O)c2ccnn2C)cc1 | – | -0.044% (inactive) | –
COc1cc(/C=C/c2ccc3cccc(O)c3n2)cc(OC)c1OC | – | -0.032% (inactive) | –
O=[N+]([O-])c1ccc(O)c([N+](=O)[O-])c1 | – | – | activation ([2]; at 19.5 µM (top of the series)): -0.014% (inactive)
COc1ccc(-c2noc(-c3cccs3)n2)cc1OC | – | 0.151% (inactive) | –
COc1ccccc1OCCOc1ccc(/C=C2\C(=N)N3N=C(S(C)(=O)=O)SC3=NC2=O)cc1 | – | 0.042% (inactive) | –
NC(=O)c1sc2nc3c(cc2c1N)CCCCCC3 | – | 0.065% (inactive) | –
Cc1ccc(C(=O)NCc2ccccn2)cc1NC1=NC2CS(=O)(=O)CC2S1 (stereo not given) | – | 0.151% (inactive) | –
CCN1CCc2c(sc(NC(=O)c3ccc4ccccc4c3)c2C(N)=O)C1 | – | -0.008% (inactive) | –
NC(=NC(=O)c1cccc(C(F)(F)F)c1)c1ccc(C(F)(F)F)cn1 | – | 0.408% (inactive) | –
CC(=O)N/C(N)=N/c1nc(=O)c2ccccc2s1 | – | -0.044% (inactive) | –
CCCCC(=O)N(C)c1c(CC)nc2c(OCC(=O)c3ccc(F)cc3)cccn12 | – | -0.039% (inactive) | –
Cc1c(Nc2cc(Cl)c3nonc3c2[N+](=O)[O-])c(=O)n(-c2ccccc2)n1C | – | -0.121% (inactive) | –
C[C@@H]1COc2cccc(NCCO)c2S(=O)(=O)N1 | – | 0.028% (inactive) | –
COc1ccc(Cc2c(O)nc(SCC(=O)NC34CC5CC(CC(C5)C3)C4)[nH]c2=O)cc1 | – | 0.41% (inactive) | –
CC(=O)Nc1sc(C)c(C)c1C(=O)OCC(=O)Nc1cc(S(C)(=O)=O)ccc1Cl | – | 0.641% (inactive) | –
CCOc1ccc(C(Nc2cccnc2)c2cc(Cl)c3cccnc3c2O)cc1 (stereo not given) | – | 8.68% (inactive) | –
CCOC(=O)c1ccc(NC(=O)C2CCC(CNc3c(N4CCOCC4)c(=O)c3=O)CC2)cc1 (stereo not given) | – | 0.016% (inactive) | –
Cc1cccn2c(=O)c3cc(C(=O)NCc4ccc(F)cc4)c(=N)n(CCCN4CCOCC4)c3nc12 | – | 0.061% (inactive) | –
COc1ccccc1-c1cc(C(=O)N2CCCc3ccccc32)no1 | – | 0.179% (inactive) | –
